Our source for the IC50 values is BindingDB's records for doi:10.1016/0960-894X(95)00473-7 (1995).

Molecules are shown by their SMILES.

For the assay, the target named is 5-hydroxytryptamine receptor 1D (Bos taurus). The assay is described as follows: Ability to bind to 5-hydroxytryptamine 1D receptor of calf substantia nigra.
For orientation: IC50 means the midpoint of a concentration-inhibition curve. A higher IC50 goes with weaker potency. Compound `COc1ccc2c(c1)OC(CNCCCNC1=NCCCN1)CC2` (stereo not given) returned an IC50 of 3.2 nM.

On to `c1ccc2c(c1)CCC(CNCCCNC1=NCCCC1)O2` (stereo not given), for which the 50% inhibitory concentration (IC50) amounted to 4 nM.

`COc1cccc2c1OC(CNCCCNC1=NCCCN1)CC2` (stereo not given) returned an IC50 of 0.794 nM.

The compound `c1ccc2c(c1)CCC(CNCCCNc1cnccn1)O2` (stereo not given) yielded an IC50 of 10 nM.

`Clc1ccc(NCCCNCC2CCc3ccccc3O2)nn1` (stereo not given) showed an IC50 of 2 nM. Compared with the last compound, the IC50 is about 5-fold lower.

For `c1ccc2c(c1)CCC(CNCCCNC1=NCCN1)O2` (stereo not given), 6.3 nM corresponded to half-maximal inhibition (IC50).

As for `c1ccc2c(c1)CCC(CNCCCCCNC1=NCCCN1)O2` (stereo not given), the IC50 was determined as 10 nM. This IC50 is about 1.6-fold higher than that of the compound before.

Compound `O=C1CCCN=C(NCCCNCC2CCc3ccccc3O2)N1` (stereo not given) returned an IC50 of 158 nM.

As to `c1ccc2c(c1)CCC(CNCCCNC1=NCCCN1)C2` (stereo not given), the IC50 is 40 nM. This IC50 is about 4-fold lower than that of the compound before.

As to `c1ccc2c(c1)CC(CNCCCNC1=NCCCN1)O2` (stereo not given), the IC50 worked out at 126 nM.

On to `CC(C)NC(=N)NNCCCNCC1CCc2ccccc2O1` (stereo not given), for which it took 3.2 nM to reach half-maximal inhibition (IC50).

In turn, `c1cnc(NCCCNCC2CCc3ccccc3O2)nc1` (stereo not given) had an IC50 of 1.6 nM.

For the compound `c1ccc2c(c1)CCC(CNCCCNc1ccncn1)O2` (stereo not given), the IC50 is 10 nM.

As to `c1ccc2c(c1)CCC(CNCCCNc1nccs1)O2` (stereo not given), it took 7.9 nM to reach half-maximal inhibition (IC50). This IC50 and that of the compound before are within 1.5-fold of each other.

For the compound `Fc1ccc2c(c1)CCC(CNCCCNC1=NCCCN1)O2` (stereo not given), the IC50 is 7.9 nM.
